Experimental findings from patent US11149267B2, “Functional genomics using CRISPR-Cas systems, compositions, methods, screens and applications thereof” (The Broad Institute, Inc., priority 2013, dated 2021) are described below.

A short description of data set [1]: Dosing of screening agents, CellTiter-Glo cell viability assay. It counts as cell-based. The settings on record: human, WT KBM7 cells. The procedure: (§1) Dosing of screening agents: To determine the appropriate dose of 6-TG and etoposide for screening in KBM7 and HL60 cells, cells were seeded in 96-well tissue culture plates at 4000 cells/well in 200 μL of media and were treated in triplicate with varying concentrations of 6-TG and etoposide. A CellTiter-Glo cell viability assay was performed after 4 days to assess drug toxicity. Concentrations at which the viability of WT KBM7 and HL60 cells fell below 5% were chosen.
Pooled screening: In all screens, 90 million target cells were transduced with viral sub pools and selected with blasticidin 24 hours after infection for 3 days. For the 6-TG screen, Cas9-KBM7 cells were cultured in media containing 400 nM 6-TG. For screens with etoposide, Cas9-KBM7 and Cas9-HL60 cells were cultured in media containing 130 nM and 200 nM of etoposide, respectively. Cultures of untreated Cas9-KBM7 and Cas9-HL60 cells were also maintained in parallel. All cells were passaged every 3 days, and after 12 days, cells were harvested for genomic DNA extraction. In negative selection screens, 10 million cells were harvested for genomic DNA extraction 24 hours after infection. The remaining cells were maintained for 12 doublings, before being harvested for genomic DNA extraction.
(In general: In ATP-based viability assays light output follows the ATP content of the culture.)

Data set [2] is described as follows: CellTiter-Glo cell viability assay in HL60 cells. It counts as cell-based, human. The settings on record: human, WT HL60 cells; at the concentration chosen for screening (200 nM etoposide); 4 days. The procedure:
(§2) Viability assay: Cells were seeded in 96-well tissue culture plates at 4000 cells/well in 200 μL of media under various treatment conditions. After 3 days, 35 μL of CellTiter-Glo reagent (Promega) was added to each well, mixed for 5 minutes, and the luminescence was read on the SpectraMax M5 Luminometer (Molecular Devices). All experiments were performed in triplicate.
as §1
(§3) Pooled screening: In all screens, 90 million target cells were transduced with viral sub pools and selected with blasticidin 24 hours after infection for 3 days. For the 6-TG screen, Cas9-KBM7 cells were cultured in media containing 400 nM 6-TG. For screens with etoposide, Cas9-KBM7 and Cas9-HL60 cells were cultured in media containing 130 nM and 200 nM of etoposide, respectively. Cultures of untreated Cas9-KBM7 and Cas9-HL60 cells were also maintained in parallel. […]

In data set [3] the test system is HL60 cells. Nature of the data set: CellTiter-Glo cell viability assay in HL60 cells. It counts as cell-based, human. The settings on record: versus parental or sgAAVS1-modified HL60 cells; viability by cellular ATP. On the procedure: as §2, §1, §3

Broadly, the viability is the share of living cells, or the viability signal relative to a control. Low values mean a greater loss of cells, high ones better survival. Consider `COc1cc([C@@H]2c3cc4c(cc3[C@@H](O[C@@H]3O[C@@H]5CO[C@@H](C)O[C@H]5[C@H](O)[C@H]3O)[C@H]3COC(=O)[C@H]23)OCO4)cc(OC)c1O` [etoposide], for which, in data set [1] (at the concentration chosen for screening (130 nM etoposide)), the viability at 4 days, 130 nM is less than 5%. In data set [2], this compound yielded a viability at 4 days, 200 nM of less than 5%. Moreover, in data set [3], the “resistance to etoposide of isogenic HL60 lines with sgRNAs against TOP2A and CDK6” value is reported as “much more resistant”.
Take `Nc1nc2nc[nH]c2c(=S)[nH]1` [6-TG, 6-thioguanine]: the viability at 4 days, 400 nM in data set [1] (at the concentration chosen for screening (400 nM 6-TG)) is less than 5%.
